Measurements reported in PMC9667534, “Insertion of Nanoluc into the Extracellular Loops as a Complementary Method To Establish BRET-Based Binding Assays for GPCRs” (ACS Pharmacology & Translational Science, 2022).
Values joined by “and” are separate entries in the source; they are usually repeats but may differ in a detail not shown here. Identical values can stand only once. Like-named read-outs stand apart in the source and are kept apart here.

What was measured:
AT1R = molecular target: AT1R; design: method as in ref 41,44,46-49 (per cell); conditions: different expression systems, ref 41,44,46-49 (per cell); cited from earlier work
Nluc-NTS1R(T227) (human) [1] = molecular target: Nluc-NTS1R(T227) (human) (UniProt P30989); assay: FRET or BRET; kinetic BRET binding (association then dissociation) at intact HEK293T cells, 27 °C; fluorescent ligand 10 nM; dissociation started with SR142948 or candesartan (2.5 μM)
Nluc-NTS1R(T227) (human) [2] = molecular target: Nluc-NTS1R(T227) (human) (UniProt P30989); assay: FRET or BRET; BRET saturation binding of the fluorescent ligand at intact HEK293T cells stably expressing the Nluc-receptor construct; 60 min, 27 °C; L-15, 10 mM HEPES pH 7.4, 2% BSA; nonspecific binding with 100-fold excess of SR142948 or candesartan
Nluc-M1R(G176) [3] = molecular target: T1, Nluc-M1R(G176) (Homo sapiens, UniProt P11229); assay: biochemical; type: binding
T1 sequence (P11229 1-460): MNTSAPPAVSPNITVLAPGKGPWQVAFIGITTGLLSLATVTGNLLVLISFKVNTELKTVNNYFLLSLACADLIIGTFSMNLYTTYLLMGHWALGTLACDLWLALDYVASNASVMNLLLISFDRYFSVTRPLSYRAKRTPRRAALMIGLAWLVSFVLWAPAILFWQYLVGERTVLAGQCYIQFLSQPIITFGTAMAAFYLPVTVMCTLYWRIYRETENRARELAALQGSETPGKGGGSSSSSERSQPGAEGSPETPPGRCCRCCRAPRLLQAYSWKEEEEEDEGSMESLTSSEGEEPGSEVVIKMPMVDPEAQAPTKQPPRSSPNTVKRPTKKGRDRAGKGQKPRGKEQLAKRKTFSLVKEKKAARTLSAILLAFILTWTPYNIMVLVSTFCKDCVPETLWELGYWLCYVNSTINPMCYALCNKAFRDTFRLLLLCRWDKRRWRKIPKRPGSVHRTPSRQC
Procedure: BRET binding experiments were essentially performed as described[18] with the following minor modifications: 1 day prior to the experiment, HEK293T cells stably expressing the respective Nluc-receptor fusion construct were detached from the cell culture dish by trypsinization, centrifuged (500g, 5 min), and resuspended in L-15 with 5% FCS and 10 mM HEPES (pH 7.4). […] Subsequently, 10 μL of assay buffer containing the investigated fluorescent ligand was added to all wells.
(§1) A positive control containing only fluorescent ligand and no competitor (100% value), as well as a negative control (buffer, 0% value), was included in every experiment.
(§2) For competition binding experiments, the data were normalized to the BRET ratio obtained for the negative control (buffer, 0% value) and the BRET ratio obtained for wells containing fluorescent ligand, but no competitor (100% value). […] The obtained pIC50 values were subsequently transformed into pKi values by means of the Cheng–Prusoff equation (logarithmic form),[80] for which means and SEMs were calculated.

M1R = conditions: cited from earlier work
NTS1R = molecular target: NTS1R; design: method as in ref 42,44,50-53 (per cell); conditions: different expression systems, ref 42,44,50-53 (per cell); cited from earlier work
Nluc-M1R(Nterm) = molecular target: T2, Nluc-M1R(Nterm) (Homo sapiens, UniProt P11229); assay: BRET saturation binding at intact HEK293T cells; conditions: mean ± SEM, read-out: pKd (BRET) (converted)
T2 construct: expressed in transfected cells; host or cells: HEK293T, stably transfected (pcDNA3.1)
T2 sequence (P11229 1-460): T1 sequence (P11229 1-460)
Procedure: (§3) BRET binding experiments were essentially performed as described[18] with the following minor modifications: 1 day prior to the experiment, HEK293T cells stably expressing the respective Nluc-receptor fusion construct were detached from the cell culture dish by trypsinization, centrifuged (500g, 5 min), and resuspended in L-15 with 5% FCS and 10 mM HEPES (pH 7.4). […] Subsequently, 10 μL of assay buffer containing the investigated fluorescent ligand was added to all wells. After an incubation period of 60 min at 27 °C, 10 μL of the Nluc substrate furimazine (prediluted 1:1000 before use) was added and after an equilibration time of 5 min inside the plate reader (prewarmed to 27 °C), the measurement was started.
(§4) For BRET experiments, the “raw BRET ratio” was calculated by dividing the emission detected through the 610 LP filter (acceptor) by the emission detected through the 460 BP filter (donor). A baseline correction was performed for all values by subtracting the BRET ratio of a buffer control, yielding “corrected BRET ratios”. […] The obtained Kd values were transformed into pKd values, for which means and SEMs were calculated.

Nluc-M1R(G176) [4] = molecular target: T1, Nluc-M1R(G176); assay: BRET saturation binding at intact HEK293T cells
Procedure: as §3, §4

Nluc-M1R(G176) [5] = molecular target: T1, Nluc-M1R(G176); assay: Kinetic BRET binding (association and dissociation)
Nluc-AT1R(S186) = molecular target: T3, Nluc-AT1R(S186) (Homo sapiens, UniProt P30556); assay: BRET competition binding with fluorescent ligand 3
T3 sequence (P30556 1-359): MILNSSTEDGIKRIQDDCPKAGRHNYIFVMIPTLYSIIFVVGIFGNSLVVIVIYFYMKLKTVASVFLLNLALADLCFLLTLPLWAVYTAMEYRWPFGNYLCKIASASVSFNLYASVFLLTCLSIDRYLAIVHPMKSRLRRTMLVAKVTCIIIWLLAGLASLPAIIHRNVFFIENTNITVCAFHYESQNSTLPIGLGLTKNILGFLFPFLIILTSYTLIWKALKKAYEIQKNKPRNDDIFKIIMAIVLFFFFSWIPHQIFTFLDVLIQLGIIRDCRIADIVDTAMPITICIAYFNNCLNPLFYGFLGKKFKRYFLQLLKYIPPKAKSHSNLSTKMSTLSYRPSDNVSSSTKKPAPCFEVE
Procedure: as §3
A positive control containing only fluorescent ligand and no competitor (100% value), as well as a negative control (buffer, 0% value), was included in every experiment. […]
as §2

Y1R [6] = molecular target: Y1R; design: method as in PMID 35263541; conditions: 1 as the fluorescent probe; cited from earlier work
Y1R [7] = molecular target: Y1R; design: method as in ref 24,25,27,30-38 (per cell); conditions: different expression systems, sodium-containing or sodium-free buffers, ref 24,25,27,30-38 (per cell); cited from earlier work
Nluc-Y1R(Y192) [8] = molecular target: T4, Nluc-Y1R(Y192) (Homo sapiens, UniProt P25929); assay: BRET competition binding with fluorescent ligand 1; conditions: competition with 1 (c = 0.5 nM, Kd = 0.24 nM), intact HEK293T cells, mean ± SEM
T4 sequence (P25929 1-384): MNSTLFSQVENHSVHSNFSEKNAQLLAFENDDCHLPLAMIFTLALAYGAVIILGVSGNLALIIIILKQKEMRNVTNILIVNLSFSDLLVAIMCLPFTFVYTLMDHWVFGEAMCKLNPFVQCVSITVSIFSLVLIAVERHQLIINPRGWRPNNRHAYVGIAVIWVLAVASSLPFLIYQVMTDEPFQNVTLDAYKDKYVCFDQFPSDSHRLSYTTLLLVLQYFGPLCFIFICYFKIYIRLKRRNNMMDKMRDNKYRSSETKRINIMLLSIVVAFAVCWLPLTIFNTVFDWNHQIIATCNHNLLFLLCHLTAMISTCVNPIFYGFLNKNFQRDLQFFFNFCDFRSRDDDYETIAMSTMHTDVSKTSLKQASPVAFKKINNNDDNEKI
Procedure: as §3, §1, §2

Nluc-Y1R(Q291) [9] = molecular target: T5, Nluc-Y1R(Q291) (Homo sapiens, UniProt P25929); assay: BRET competition binding with fluorescent ligand 1; conditions: competition with 1 (c = 0.5 nM, Kd = 0.29 nM), HEK293T cells; mean ± SEM
T5 sequence (P25929 1-384): T4 sequence (P25929 1-384)
Procedure: as §3, §1, §2

Nluc-NTS1R(T227) = assay: BRET competition binding with fluorescent ligand 2; design: species or system human; conditions: competition with 2 (c = 5 nM, Kd = 4.82 nM), intact HEK293T cells, mean ± SEM
Procedure: as §3, §1, §2

Nluc-Y1R(Nterm) = molecular target: T6, Nluc-Y1R(Nterm) (Homo sapiens, UniProt P25929); assay: BRET saturation binding at intact HEK293T cells
T6 construct: expressed in transfected cells; host or cells: HEK293T, stably transfected (pcDNA3.1)
T6 sequence (P25929 1-384): T4 sequence (P25929 1-384)
Procedure: as §3, §4

Nluc-Y1R(Δ1–31) = molecular target: T7, Nluc-Y1R(Δ1–31) (Homo sapiens, UniProt P25929); assay: BRET saturation binding at intact HEK293T cells; conditions: mean ± SEM, read-out: pKd (BRET) (converted)
T7 construct: fused Nluc to Asp32 of the Y1R via a short linker; expressed in transfected cells; host or cells: HEK293T, stably transfected (pcDNA3.1)
T7 sequence (P25929 32-384): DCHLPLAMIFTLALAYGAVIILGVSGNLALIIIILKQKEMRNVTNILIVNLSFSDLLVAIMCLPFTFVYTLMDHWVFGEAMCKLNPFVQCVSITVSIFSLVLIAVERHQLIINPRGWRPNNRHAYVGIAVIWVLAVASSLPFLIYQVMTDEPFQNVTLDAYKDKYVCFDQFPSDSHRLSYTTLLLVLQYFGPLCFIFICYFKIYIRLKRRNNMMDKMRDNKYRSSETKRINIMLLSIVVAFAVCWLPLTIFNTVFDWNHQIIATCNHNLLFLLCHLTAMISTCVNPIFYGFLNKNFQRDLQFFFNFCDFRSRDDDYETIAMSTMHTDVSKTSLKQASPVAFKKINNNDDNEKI
Procedure: as §3, §4

Nluc-Y1R(Y192) [10] = molecular target: T4, Nluc-Y1R(Y192); assay: BRET saturation binding at intact HEK293T cells
Procedure: as §3, §4

Nluc-Y1R(Q291) [11] = molecular target: T5, Nluc-Y1R(Q291); assay: BRET saturation binding at intact HEK293T cells
Procedure: as §3, §4

Nluc-Y1R(Y192) [12] = molecular target: T4, Nluc-Y1R(Y192); assay: Kinetic BRET binding (association and dissociation); conditions: 1 c = 0.5 nM
wild-type Y1R = molecular target: wild-type Y1R; design: method as in PMID 35263541; conditions: cited from earlier work
[13] = intact HEK293T cells, mean ± SEM, read-out: pKd (BRET) (converted)
[14] = value used for Cheng–Prusoff, read-out: Kd
[15] = intact HEK293T cells, mean ± SEM

Sequence of Nluc-NTS1R(T227) (human) (P30989 whole entry): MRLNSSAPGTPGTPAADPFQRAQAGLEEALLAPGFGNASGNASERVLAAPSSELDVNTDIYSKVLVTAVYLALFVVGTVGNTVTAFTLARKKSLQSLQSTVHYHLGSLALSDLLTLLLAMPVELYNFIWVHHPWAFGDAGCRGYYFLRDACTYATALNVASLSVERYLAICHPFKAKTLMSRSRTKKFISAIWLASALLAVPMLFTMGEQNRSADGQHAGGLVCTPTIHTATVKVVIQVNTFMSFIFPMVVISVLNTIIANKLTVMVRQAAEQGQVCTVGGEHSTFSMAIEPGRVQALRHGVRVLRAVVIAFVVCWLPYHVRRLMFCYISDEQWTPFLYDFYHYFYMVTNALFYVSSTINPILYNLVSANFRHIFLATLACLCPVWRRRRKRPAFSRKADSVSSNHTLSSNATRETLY
Sequence of Nluc-NTS1R(T227) (P30989 1-227 limits assumed): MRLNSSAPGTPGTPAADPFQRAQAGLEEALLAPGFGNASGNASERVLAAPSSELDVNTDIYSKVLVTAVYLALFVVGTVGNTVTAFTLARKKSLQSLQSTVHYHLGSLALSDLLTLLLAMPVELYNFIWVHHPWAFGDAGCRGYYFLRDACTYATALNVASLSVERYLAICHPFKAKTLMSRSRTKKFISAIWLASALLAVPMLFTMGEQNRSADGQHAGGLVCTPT
Sequence of Nluc-NTS1R(T227) (P30989 228-418 limits assumed): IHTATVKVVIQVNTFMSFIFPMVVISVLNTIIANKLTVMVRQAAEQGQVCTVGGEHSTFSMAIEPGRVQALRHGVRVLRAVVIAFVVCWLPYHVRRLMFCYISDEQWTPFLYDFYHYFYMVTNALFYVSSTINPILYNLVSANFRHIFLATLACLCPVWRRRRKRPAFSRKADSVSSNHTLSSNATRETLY

Molecule: CCCCc1nc(Cl)c(CO)n1Cc1ccc(-c2ccccc2-c2nn[nH]n2)cc1 [losartan]
- reference values (literature) (AT1R): 7.23–8.00[41],[44],[46],[48],[49]

Molecule: UR-AP178 (peptide)
- koff (Nluc-NTS1R(T227) (human) [1]): 0.0138 s⁻¹
- kon (Nluc-NTS1R(T227) (human) [1]): 2e+06 M⁻¹ s⁻¹
- pKd kinetic (Nluc-NTS1R(T227) (human) [1]): 8.16
- pKd (Nluc-NTS1R(T227) (human) [2]): 8.32

Molecule: C[N+](C)(C)CC#CCOC1=NOCC1 [iperoxo]
- pKi (BRET) (Nluc-M1R(G176) [3]): 7.00 ± 0.07
- reference values (literature) (M1R): 6.46[56]

Molecule: Neurotensin(8–13) [NT(8–13)]
- reference values (literature) (NTS1R): 8.27–9.85[42],[44],[50]−[52]

Molecule: Cc1cc(/C=C/C=C/c2ccc(N(C)C)cc2)cc(C)[n+]1CCNC(=O)CCc1cn(CCCCC2CCN(CC(=O)N3c4ccccc4NC(=O)c4ccccc43)CC2)cn1 [compound 4]
- Kd (Nluc-M1R(Nterm)): 6.03 nM
- Kd (Nluc-M1R(G176) [4]; [13]): 2.24 nM
- Kd (Nluc-M1R(G176) [4]; [14]): 2.26 nM
- koff (Nluc-M1R(G176) [5]): 0.00297 s⁻¹
- kon (Nluc-M1R(G176) [5]): 367000 M⁻¹ s⁻¹
- Kd (Nluc-M1R(G176) [5]; kinetically derived, Nluc-M1R(G176), 4 c = 5 nM, mean ± SEM, read-out: pKd kinetic (converted)): 9.12 nM

Molecule: angiotensin II
- time until pIC50 value stabilized (Nluc-AT1R(S186); kinetic BRET competition binding with 3 at Nluc-AT1R(S186)): ≤ 45 min
- reference values (literature) (AT1R): 7.61–9.62[44],[46]−[49]

Molecule: porcine neuropeptide Y [pNPY]
- pKi (flow cytometry-based competition binding) (Y1R [6]): 7.58
- reference values (literature) (Y1R [7]): 7.58–9.75[24],[25],[27],[30]−[32]

Molecule: CCC(=O)NCCNC(=O)N=C(N)NCCC[C@@H](NC(=O)C(c1ccccc1)c1ccccc1)C(=O)NCc1ccc(O)cc1 [UR-MK299]
- pKi (BRET) (Nluc-Y1R(Y192) [8]): 10.20 ± 0.06
- pKi (BRET, Nluc-Y1R(Q291)) (Nluc-Y1R(Q291) [9]): 10.06 ± 0.07
- reference values (literature) (Y1R [7]): 10.11[25]

Molecule: NC(N)=NCCC[C@@H](NC(=O)C(c1ccccc1)c1ccccc1)C(=O)NCc1ccc(O)cc1 [BIBP3226]
- reference values (literature) (Y1R [7]): 8.14–9.00[25],[27],[30],[33],[34]

Molecule: C=CC[N@@+]12CC[C@@]34c5ccccc5N5/C=C6/[C@H]7C[C@H]8[C@@]9(CC[N@@+]8(CC=C)C/C7=C/CO)c7ccccc7N(/C=C(/[C@@H](C[C@@H]31)/C(=C\CO)C2)[C@H]54)[C@@H]69 [alcuronium, Alcuronium]
- displacement of fluorescent ligand 4 (Nluc-M1R(G176) [3]; Nluc-M1R(G176)): displace the dualsteric ligand 4 completely
- reference values (literature) (M1R): 5.01,[57] 5.25[55]

Molecule: SR142948
- pKi (BRET) (Nluc-NTS1R(T227)): 7.93 ± 0.12
- reference values (literature) (NTS1R): 8.05–8.99[42],[44],[50],[53]

Molecule: CC(C)c1ccccc1S(=O)(=O)c1cc(N)c2ncccc2c1[N+](=O)[O-] [PD160170]
- pKi (BRET) (Nluc-Y1R(Y192) [8]): 7.45 ± 0.05
- reference values (literature) (Y1R [7]): 7.30 and 7.32

Molecule: BMS193885
- pKi (BRET) (Nluc-Y1R(Y192) [8]): 8.23 ± 0.01
- reference values (literature) (Y1R [7]): 7.66–8.48[27],[35],[36]

Molecule: O=C1CCCN1CC#CCN1CCCC1 [oxotremorine]
- Ki (Nluc-M1R(G176) [3]): 1000 nM
- reference values (literature) (M1R): 5.48–5.86[55],[57],[59]

Molecule: CCC(=O)NCCNC(=O)N=C(N)NCCC[C@@H](NC(=O)[C@@H](c1ccccc1)c1cccc(OCCCC[n+]2c(C)cc(/C=C/C=C/c3ccc(N(C)C)cc3)cc2C)c1)C(=O)NCc1ccc(O)cc1 [compound 1]
- specific signal in BRET saturation binding (Nluc-Y1R(Nterm)): no specific signal was detectable
- Kd (Nluc-Y1R(Δ1–31)): 2.88 nM
- Kd (Nluc-Y1R(Y192) [10]; [13]): 0.24 nM
- Kd (Nluc-Y1R(Y192) [10]; [14]): 0.24 nM
- Kd (Nluc-Y1R(Q291) [11]; [13]): 0.288 nM
- Kd (Nluc-Y1R(Q291) [11]; [14]): 0.29 nM
- time of association (Nluc-Y1R(Y192) [12]): ≤ 60 min
- koff (Nluc-Y1R(Y192) [12]; [15]): 6.67e-05 s⁻¹
- kon (Nluc-Y1R(Y192) [12]; [15]): 2.38e+06 M⁻¹ s⁻¹
- fraction still bound after initiation of dissociation (Nluc-Y1R(Y192) [12]; after 4 h, dissociation by BIBO3304): ≈ 40%
- Kd (Nluc-Y1R(Y192) [12]; kinetically derived, mean ± SEM, read-out: pKd kinetic (converted)): 0.024 nM
- pKi (radioligand competition binding) (wild-type Y1R): 9.95

Molecule: NC(=O)NCc1ccc(CNC(=O)[C@@H](CCCN=C(N)N)NC(=O)C(c2ccccc2)c2ccccc2)cc1 [BIBO3304]
- reference values (literature) (Y1R [7]): 8.76–9.60[27],[30],[31]

Molecule: CCOc1nc2cccc(C(=O)O)c2n1Cc1ccc(-c2ccccc2-c2nnn[nH]2)cc1 [candesartan, Candesartan]
- Ki (Nluc-AT1R(S186)): 1.51 nM
- reference values (literature) (AT1R): 8.46–10.28[41],[44],[46]−[48]
